Article PMC2878737 (Channels (Austin, Tex.), 2009)

Biological target: NaV1.2 (Rattus norvegicus, UniProt P04775)
Sequence (P04775 whole entry, looked up): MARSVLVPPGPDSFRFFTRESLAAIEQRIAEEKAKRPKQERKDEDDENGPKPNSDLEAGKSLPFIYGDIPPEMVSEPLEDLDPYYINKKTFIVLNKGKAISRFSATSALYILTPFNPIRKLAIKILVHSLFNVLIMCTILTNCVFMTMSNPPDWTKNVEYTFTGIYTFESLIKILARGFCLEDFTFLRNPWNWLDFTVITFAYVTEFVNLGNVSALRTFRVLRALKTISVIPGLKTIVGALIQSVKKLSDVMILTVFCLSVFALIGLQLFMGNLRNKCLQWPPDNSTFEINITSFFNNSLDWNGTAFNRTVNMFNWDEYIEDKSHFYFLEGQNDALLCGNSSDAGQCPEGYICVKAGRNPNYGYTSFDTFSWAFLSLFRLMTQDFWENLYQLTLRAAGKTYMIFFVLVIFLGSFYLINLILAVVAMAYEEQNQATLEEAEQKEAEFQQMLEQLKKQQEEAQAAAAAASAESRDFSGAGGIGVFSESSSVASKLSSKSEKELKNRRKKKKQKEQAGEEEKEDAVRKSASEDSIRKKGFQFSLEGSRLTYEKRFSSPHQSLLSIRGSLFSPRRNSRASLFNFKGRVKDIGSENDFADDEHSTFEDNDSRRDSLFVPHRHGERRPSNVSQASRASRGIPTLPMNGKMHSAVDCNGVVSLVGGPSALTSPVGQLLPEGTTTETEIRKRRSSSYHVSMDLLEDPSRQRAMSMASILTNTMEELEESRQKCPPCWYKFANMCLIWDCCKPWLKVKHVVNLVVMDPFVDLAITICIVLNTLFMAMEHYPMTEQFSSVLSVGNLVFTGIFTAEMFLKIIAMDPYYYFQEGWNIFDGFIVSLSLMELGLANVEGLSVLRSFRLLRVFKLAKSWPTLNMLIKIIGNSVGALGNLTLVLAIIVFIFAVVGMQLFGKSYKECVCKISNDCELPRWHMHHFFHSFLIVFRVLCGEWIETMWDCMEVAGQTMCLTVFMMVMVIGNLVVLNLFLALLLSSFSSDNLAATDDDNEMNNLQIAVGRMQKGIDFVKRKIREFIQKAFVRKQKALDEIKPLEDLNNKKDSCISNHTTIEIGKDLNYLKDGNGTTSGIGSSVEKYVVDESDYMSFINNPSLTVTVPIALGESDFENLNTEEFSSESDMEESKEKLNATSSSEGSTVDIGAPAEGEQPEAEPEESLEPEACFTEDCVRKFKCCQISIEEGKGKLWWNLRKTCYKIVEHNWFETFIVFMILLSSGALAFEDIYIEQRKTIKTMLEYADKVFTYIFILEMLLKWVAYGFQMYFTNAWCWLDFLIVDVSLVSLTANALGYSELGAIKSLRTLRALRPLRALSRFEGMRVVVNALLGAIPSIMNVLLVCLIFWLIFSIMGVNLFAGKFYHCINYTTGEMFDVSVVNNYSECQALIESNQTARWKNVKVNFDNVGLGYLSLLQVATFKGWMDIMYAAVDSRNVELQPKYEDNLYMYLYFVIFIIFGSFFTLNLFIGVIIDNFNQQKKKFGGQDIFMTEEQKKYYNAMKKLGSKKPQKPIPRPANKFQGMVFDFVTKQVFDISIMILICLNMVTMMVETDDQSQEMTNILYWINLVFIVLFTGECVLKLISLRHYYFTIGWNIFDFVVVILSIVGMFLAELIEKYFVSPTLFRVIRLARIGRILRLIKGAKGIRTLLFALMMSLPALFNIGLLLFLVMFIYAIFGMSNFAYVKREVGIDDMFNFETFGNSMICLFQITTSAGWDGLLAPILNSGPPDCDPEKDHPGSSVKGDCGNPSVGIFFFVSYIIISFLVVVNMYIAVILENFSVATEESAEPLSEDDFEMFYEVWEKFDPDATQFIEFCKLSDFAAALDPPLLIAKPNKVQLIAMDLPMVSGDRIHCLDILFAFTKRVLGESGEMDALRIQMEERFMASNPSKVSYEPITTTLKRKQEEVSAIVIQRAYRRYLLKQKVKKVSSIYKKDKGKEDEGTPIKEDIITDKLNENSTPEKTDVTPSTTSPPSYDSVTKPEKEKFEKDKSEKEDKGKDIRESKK

NC1=N[C@H](O)[C@H]2[C@H]3O[C@]4(O)O[C@@H]([C@@H](O)[C@@]2(N1)[C@@H]4O)[C@]3(O)CO [TTX, Tetrodotoxin]
block of residual INa persisting with KIIIA or KIIIA[K7A]: completely blocked
